Assays:
Type in all cases: in vivo
Scirpophaga incertulas = assay: Test Example 1: control of Scirpophaga incertulas (dead hearts) in paddy field; conditions: for Percentage of S. incertulas-caused dead hearts: applied once 10 days after transplantation, assessed 43 days after transplantation; for Percentage of control of S. incertulas: 43 days after transplantation
Text: (§1) Paddy rice plants were transplanted to an experimental paddy field (50 m^2, planted with 1250 paddy rice plants on average), and 10 days later, granules containing flubendiamide as an active ingredient were applied once at the predetermined doses. At 43 days after the transplantation, in 10 rice plants chosen at random, the percentage of Scirpophaga incertulas-caused dead hearts per plant, the percentage of control of Scirpophaga incertulas, the stem number per plant, and the percentage of increase in the stem number were measured. To exclude the positive effect of the insecticidal action of flubendiamide on the growth of paddy rice plants, chlorantraniliprole, which has an equivalent insecticidal action, was used as a control agrochemical.

paddy rice plants = assay: Test Example 1: increase in stem number (promotion of tillering) of paddy rice plants; conditions: for Stem number/plant: 43 days after transplantation; for Percentage of increase in stem number: non-treatment = 100
Text: as §1

[1] = system: germinating rice seeds (variety: Nihonbare); assay: Test Example 2: rooting promotion and plant height growth in paddy rice plants (agar test); conditions: 25 ppm in 0.7% agar, 8 days after seeding
Procedure: A 0.7% agar solution containing 25 ppm of flubendiamide was poured into a glass cylinder (3 cm diameter×10 cm) and allowed to be solidified. Onto the solidified agar, ten germinating rice seeds (variety: Nihonbare) were sown. Then, the top of the cylinder was covered with Japanese paper and the cylinder was placed in a thermostatic chamber (light-dark cycle: 16 hours of light and 8 hours of dark, relative humidity: 60 to 70%) at 25° C. At 8 days after the seeding, the lengths of the longest root (primary root) and the stem-and-leaf part extending from each seed-rice were measured and the averages were calculated. The percentages of elongation were also calculated with the proviso that the non-treatment levels were set as 100.

[2] = system: rice plants (variety: Takanari); assay: Test Example 3: yield increase (numbers of panicles and unhulled rice grains) of paddy rice plants; conditions: for Panicle number/plant / Unhulled rice grain number/plant: harvest at 100 days; for Percentage of increase (panicle number) / Percentage of increase (unhulled rice grain number): non-treatment = 100
Procedure: Rice plants (variety: Takanari) of the 6.5- to 7-leaf stage were transplanted to 1-m^2 plots of a paddy field, and 2 or 12 days later, flubendiamide granules were applied at the predetermined doses. The test was performed in 4 replications. At 100 days after the transplantation, the rice plants were harvested, the numbers of panicles and unhulled rice grains per plant were measured and the averages were calculated. The percentages of increase were also calculated with the proviso that the non-treatment levels were set as 100.

[3] = 35 g a.i./ha granules applied 2 days after transplantation
[4] = 35 g a.i./ha granules applied 12 days after transplantation
[5] = 35 g a.i./ha, applied 2 days after transplantation
[6] = 35 g a.i./ha, applied 12 days after transplantation
[7] = 70 g a.i./ha granules applied 2 days after transplantation
[8] = 70 g a.i./ha granules applied 12 days after transplantation
[9] = 70 g a.i./ha, applied 2 days after transplantation
[10] = 70 g a.i./ha, applied 12 days after transplantation
[11] = regardless of application time and dose

## Cc1cc(C(F)(C(F)(F)F)C(F)(F)F)ccc1NC(=O)c1cccc(I)c1C(=O)NC(C)(C)CS(C)(=O)=O [Flubendiamide, 3-iodo-N′-(2-mesyl-1,1-dimethylethyl)-N-{4-[1,2,2,2-tetrafluoro-1-(trifluoromethyl)ethyl]-o-tolyl}phthalamide]
Scirpophaga incertulas; 70 g a.i./ha granules
  Percentage of S. incertulas-caused dead hearts: 0.48%
Scirpophaga incertulas; 70 g a.i./ha
  Percentage of control of S. incertulas: 87.3%
Scirpophaga incertulas; 90 g a.i./ha granules
  Percentage of S. incertulas-caused dead hearts: 0.34%
Scirpophaga incertulas; 90 g a.i./ha
  Percentage of control of S. incertulas: 91.0%
Scirpophaga incertulas; 120 g a.i./ha granules
  Percentage of S. incertulas-caused dead hearts: 0.30%
Scirpophaga incertulas; 120 g a.i./ha
  Percentage of control of S. incertulas: 92.1%
Paddy rice plants; 70 g a.i./ha
  Stem number/plant: 39.6 /plant
  Percentage of increase in stem number: 178%
Paddy rice plants; 90 g a.i./ha
  Stem number/plant: 38.0 /plant
  Percentage of increase in stem number: 171%
Paddy rice plants; 120 g a.i./ha
  Stem number/plant: 39.15 /plant
  Percentage of increase in stem number: 176%
Paddy rice plants; flubendiamide treatment plots, regardless of dose (70-120 g a.i./ha)
  Increase in stem number per plant compared with the non-treatment level: about 17
[1]; 25° C.
  Average root length: 6.7 cm
  Average stem-and-leaf length: 3.9 cm
[1]; non-treatment = 100
  Percentage of elongation in root length: 160%
  Percentage of elongation in stem-and-leaf length: 170%
[2]; [3]
  Panicle number/plant: 10.4 /plant
  Unhulled rice grain number/plant: 1360.3 /plant
[2]; [4]
  Panicle number/plant: 11.9 /plant
  Unhulled rice grain number/plant: 1528.0 /plant
[2]; [5]
  Percentage of increase (panicle number): 110%
  Percentage of increase (unhulled rice grain number): 110%
[2]; [6]
  Percentage of increase (panicle number): 126%
  Percentage of increase (unhulled rice grain number): 124%
[2]; [7]
  Panicle number/plant: 11.2 /plant
  Unhulled rice grain number/plant: 1484.0 /plant
[2]; [8]
  Panicle number/plant: 12.5 /plant
  Unhulled rice grain number/plant: 1600.0 /plant
[2]; [9]
  Percentage of increase (panicle number): 119%
  Percentage of increase (unhulled rice grain number): 120%
[2]; [10]
  Percentage of increase (panicle number): 132%
  Percentage of increase (unhulled rice grain number): 130%
[2]; [11]
  Numbers of panicles versus non-treatment levels: significantly increased
  Numbers of unhulled rice grains versus non-treatment levels: significantly increased

## CNC(=O)c1cc(Cl)cc(C)c1NC(=O)c1cc(Br)nn1-c1ncccc1Cl [Chlorantraniliprole]
Scirpophaga incertulas; 40 g a.i./ha
  Percentage of control of S. incertulas: 90.2%
  Percentage of S. incertulas-caused dead hearts: 0.37%
Paddy rice plants; 40 g a.i./ha
  Stem number/plant: 26.35 /plant
  Percentage of increase in stem number: 119%
Paddy rice plants; 40 g a.i./ha, listed as chlorantraniliprole
  Percentage of increase in stem number: about 120%
Paddy rice plants; chlorantraniliprole treatment plot (40 g a.i./ha)
  Increase in stem number per plant compared with the non-treatment level: about four

— patent US9433212B2, “Plant growth regulator and method for using the same” (NIHON NOHYAKU CO., LTD., priority 2011, dated 2016)
